According to US20240368163A1, “COMPOUNDS AND METHODS FOR MODULATING SPLICING” (REMIX THERAPEUTICS INC., priority 2021, published 2024):
Like-named read-outs stand apart in the source and are kept apart here.

Columns and labels:
Type in all cases: cell-based, human
HTT [1] = assay: Splicing RT-qPCR assay, HTT mRNA canonical junction (CJ) and alternative junction (AJ); conditions: Homo sapiens, read-out: HTT IC50 (decrease in CJ mRNA levels)
Method in brief: (§1)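 A673 or K562 cells treated 24 h at 37 °C with 11-point 3-fold dilutions, top 10 uM, DMSO ≤0.25%. Lysates read by RT-qPCR for CJ and AJ isoforms, normalized to GAPDH, GUSB or PPIA; ΔΔCt vs DMSO converted to RQ, then percent response.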

MYB [2] = assay: Splicing RT-qPCR assay, MYB mRNA canonical junction (CJ) and alternative junction (AJ); conditions: Homo sapiens, read-out: MYB IC50 (decrease in CJ mRNA levels)
Method in brief: as §1

SMN2 = assay: Splicing RT-qPCR panel, SMN2 canonical junction (CJ) mRNA; conditions: Homo sapiens, read-out: SMN2 IC50 (decrease in CJ mRNA levels)
Method in brief: as §1

Target C [3] = assay: Splicing RT-qPCR panel, Target C canonical junction (CJ) mRNA; conditions: Homo sapiens, read-out: Target C IC50 (decrease in CJ mRNA levels)
Method in brief: as §1

MYB [4] = assay: HiBiT protein abundance assay, MYB; conditions: Homo sapiens, modified K562 cells
Method in brief: (§2)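 Protein abundance measured by Nano-Glo HiBiT lytic luminescence after 24 h compound exposure of modified K562 lines, 10000 cells/well, top final dose 10 μM in 3-fold steps. Four-parameter fit of control-normalised response gives concentration reducing abundance to 50% of untreated.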

HTT [5] = assay: HiBiT protein abundance assay, HTT; conditions: Homo sapiens, modified K562 cells
Method in brief: as §2

Target C [6] = assay: HiBiT protein abundance assay, Target C; conditions: Homo sapiens, modified K562 cells
Method in brief: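 Target protein levels in engineered HiBiT-tagged cells were read by lytic luminescence after 24 h compound exposure (10000 cells/well, 10 μM top final, 3-fold steps, ≤0.25% DMSO). Unmodified K562 served as baseline; four-parameter regression gave concentration reducing abundance to 50%.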

[7] = RT-qPCR panel, canonical junction mRNA, compound concentration having 50% response in CJ decrease
[8] = gene panel, CJ qPCR, protocol of Example 142

Row | SMILES | IC50 (HTT [1]; [7]) [µM] | IC50 (MYB [2]; [7]) [µM] | IC50 (SMN2; [7]) [µM] | IC50 (Target C [3]; [7]) [µM] | IC50 (MYB [4]; K562, 24 h, Table 13A) [µM] | IC50 (HTT [5]; K562, 24 h, Table 13A) [µM] | IC50 (Target C [6]; K562, 24 h, Table 13A) [µM] | IC50 (HTT [1]; [8]) [µM] | IC50 (MYB [2]; [8]) [µM] | IC50 (SMN2; [8]) [µM] | IC50 (Target C [3]; [8]) [µM] | IC50 (MYB [4]; Table 13B, 24 hours) [µM] | IC50 (HTT [5]; Table 13B, 24 hours) [µM] | IC50 (Target C [6]; Table 13B, 24 hours) [µM] | IC50 (MYB [4]; K562, 24 h, Table 13B) [µM] | IC50 (HTT [5]; K562, 24 h, Table 13B) [µM] | IC50 (Target C [6]; K562, 24 h, Table 13B) [µM]
1 | c1nc2c(-c3cn[nH]c3)ccc(-c3cnc(N4CCN5CCCCC5C4)nn3)c2s1 (stereo not shown) [Compound 566] | 0.1 to 1 | 1 to 10 | 1 to 10 | 1 to 10 | 1 to 10 | 0.1 to 1 | 1 to 10 | – | – | – | – | – | – | – | – | – | –
2 | CN(c1ncc(-c2ccc(-c3cn[nH]c3)c3ncsc23)nn1)C1CC(C)(C)NC(C)(C)C1 [Compound 567] | 0.1 to 1 | 1 to 10 | 0.1 to 1 | 0.1 to 1 | 1 to 10 | 0.1 to 1 | 0.1 to 1 | – | – | – | – | – | – | – | – | – | –
3 | C[C@H]1CN(c2ncc(-c3ccc(-c4cn[nH]c4)c4ncsc34)nn2)C[C@@H](C2CC2)N1 [Compound 568] | 0.1 to 1 | > 10 | 1 to 10 | 1 to 10 | 1 to 10 | 0.1 to 1 | 1 to 10 | – | – | – | – | – | – | – | – | – | –
4 | CC(C)(C)NC1CCN(c2ncc(-c3ccc(-c4cn[nH]c4)c4ncsc34)nn2)C1 (stereo not shown) [Compound 569] | 0.1 to 1 | 1 to 10 | 1 to 10 | 1 to 10 | 1 to 10 | 0.1 to 1 | 1 to 10 | – | – | – | – | – | – | – | – | – | –
5 | CC(C)(C)C1CN(c2ncc(-c3ccc(-c4cn[nH]c4)c4ncsc34)nn2)CCN1 (stereo not shown) [Compound 570] | 0.1 to 1 | 0.1 to 1 | 0.1 to 1 | 0.1 to 1 | 1 to 10 | 0.1 to 1 | 0.1 to 1 | – | – | – | – | – | – | – | – | – | –
6 | C[C@@H]1CN(c2ncc(-c3ccc(-n4cccn4)c4[nH]ncc34)nn2)C[C@H](C)N1 [Compound 571] | 1 to 10 | 1 to 10 | 1 to 10 | 1 to 10 | 1 to 10 | 0.1 to 1 | 1 to 10 | – | – | – | – | – | – | – | – | – | –
7 | CN(c1ncc(-c2ccc(-c3cn[nH]c3)c3ncsc23)nn1)[C@@H]1CC2CCC[C@@H](C1)N2C [Compound 573] | 1 to 10 | > 10 | > 10 | > 10 | 1 to 10 | 1 to 10 | 1 to 10 | – | – | – | – | – | – | – | – | – | –
8 | CN(c1ncc(-c2ccc(-n3cccn3)c3[nH]ncc23)nn1)[C@@H]1C[C@H]2CCC[C@@H](C1)N2C [Compound 575] | 0.1 to 1 | > 10 | 1 to 10 | 1 to 10 | 1 to 10 | 0.1 to 1 | 1 to 10 | – | – | – | – | – | – | – | – | – | –
9 | c1cnn(-c2ccc(-c3cnc(N4CCNC5(CC5)C4)nn3)c3cn[nH]c23)c1 [Compound 577] | 0.1 to 1 | > 10 | 1 to 10 | > 10 | 1 to 10 | 1 to 10 | > 10 | – | – | – | – | – | – | – | – | – | –
10 | CC(C)(C)[C@@H]1CN(c2ncc(-c3ccc(-n4cccn4)c4[nH]ncc34)nn2)CCN1 [Compound 582] | 0.1 to 1 | 1 to 10 | < 0.1 | 1 to 10 | 1 to 10 | 0.1 to 1 | 1 to 10 | – | – | – | – | – | – | – | – | – | –
11 | COc1nc(-c2ccc(N(C)[C@@H]3C[C@H]4CC[C@@H](C3)N4)nn2)ccc1-n1cccn1 [Compound 907] | – | – | – | – | – | – | – | 0.1 to 1 | 1 to 10 | 0.1 to 1 | > 10 | 1 to 10 | 0.1 to 1 | 1 to 10 | – | – | –
12 | COc1nc(-c2ccc(N(C)[C@H]3CCN[C@@H](C)C3)nn2)ccc1-n1cccn1 [Compound 908] | – | – | – | – | – | – | – | > 10 | > 10 | 1 to 10 | 1 to 10 | – | – | – | 1 to 10 | 1 to 10 | > 10
13 | Cc1nc(-c2ccc(N(C)[C@@H]3C[C@H]4CC[C@@H](C3)N4)nn2)ccc1-c1cn[nH]c1 [Compound 912] | – | – | – | – | – | – | – | 1 to 10 | 1 to 10 | 0.1 to 1 | 1 to 10 | – | – | – | 1 to 10 | 1 to 10 | 1 to 10
14 | COc1nc(-c2ccc(N(C)[C@@H]3C[C@H]4CC[C@@H](C3)N4)nn2)ncc1-c1cn[nH]c1 [Compound 913] | – | – | – | – | – | – | – | 1 to 10 | 1 to 10 | 1 to 10 | 1 to 10 | – | – | – | 1 to 10 | 1 to 10 | 1 to 10
15 | COc1cc(-c2ccc(N(C)[C@@H]3C[C@H]4CC[C@@H](C3)N4)nn2)ccc1-c1cn[nH]c1 [Compound 914] | – | – | – | – | – | – | – | 0.1 to 1 | 1 to 10 | < 0.1 | 0.1 to 1 | – | – | – | 1 to 10 | 1 to 10 | 0.1 to 1
16 | CN(c1ccc(-c2ccc(-c3cn[nH]c3)c(C(F)(F)F)n2)nn1)[C@@H]1C[C@H]2CC[C@@H](C1)N2 [Compound 916] | – | – | – | – | – | – | – | > 10 | > 10 | > 10 | > 10 | – | – | – | > 10 | > 10 | > 10
17 | COc1cc(-c2ccc(N(C)[C@@H]3C[C@H]4CC[C@@H](C3)N4)nn2)ncc1-c1cn[nH]c1 [Compound 921] | – | – | – | – | – | – | – | > 10 | > 10 | 1 to 10 | > 10 | – | – | – | 1 to 10 | > 10 | > 10
18 | CN(c1ccc(-c2ccc(-c3cn[nH]c3)c(Cl)n2)nn1)[C@@H]1C[C@H]2CC[C@@H](C1)N2 [Compound 923] | – | – | – | – | – | – | – | < 0.1 | 0.1 to 1 | < 0.1 | 0.1 to 1 | – | – | – | 0.1 to 1 | < 0.1 | < 0.1
19 | COc1nc(-c2ccc(NC3CCNCC3)nn2)ccc1-c1cn[nH]c1 [Compound 924] | – | – | – | – | – | – | – | 1 to 10 | > 10 | 0.1 to 1 | > 10 | – | – | – | 1 to 10 | > 10 | > 10
20 | COc1nc(-c2ccc(NC3CCNCC3)nn2)ccc1-c1cnn(C)c1 [Compound 925] | – | – | – | – | – | – | – | 1 to 10 | 1 to 10 | 0.1 to 1 | > 10 | – | – | – | 1 to 10 | 1 to 10 | 1 to 10
21 | COc1nc(-c2ccc(OC3CC(C)(C)NC(C)(C)C3)nn2)ccc1-c1cnn(C)n1 [Compound 926] | – | – | – | – | – | – | – | 0.1 to 1 | 1 to 10 | 0.1 to 1 | 1 to 10 | – | – | – | 1 to 10 | 0.1 to 1 | 0.1 to 1
22 | COc1nc(-c2ccc(N(C)C3CC(C)(C)NC(C)(C)C3)nn2)ccc1-c1cnn(C)n1 [Compound 927] | – | – | – | – | – | – | – | 0.1 to 1 | 1 to 10 | 0.1 to 1 | 1 to 10 | – | – | – | 0.1 to 1 | 0.1 to 1 | 0.1 to 1
23 | COc1nc(-c2ccc(N(C)[C@@H]3C[C@H]4CC[C@@H](C3)N4)nn2)cnc1-c1cn[nH]c1 [Compound 928] | – | – | – | – | – | – | – | 0.1 to 1 | 0.1 to 1 | < 0.1 | 0.1 to 1 | – | – | – | 0.1 to 1 | 0.1 to 1 | 0.1 to 1
24 | CCOc1nc(-c2ccc(N(C)[C@@H]3C[C@H]4CC[C@@H](C3)N4)nn2)ccc1-c1cn[nH]c1 [Compound 929] | – | – | – | – | – | – | – | < 0.1 | < 0.1 | < 0.1 | < 0.1 | – | – | – | < 0.1 | < 0.1 | < 0.1
25 | COc1nc(-c2ccc(N(C)C3C[C@H]4CC[C@@H](C3)N4)nn2)ccc1-c1cnn(C)n1 (stereo partly shown) [Compound 932] | – | – | – | – | – | – | – | 0.1 to 1 | 0.1 to 1 | 0.1 to 1 | 0.1 to 1 | – | – | – | 0.1 to 1 | 0.1 to 1 | 0.1 to 1
26 | COc1nc(-c2ccc(NC3CCNCC3)nn2)ccc1-c1cnn(C)n1 [Compound 933] | – | – | – | – | – | – | – | > 10 | > 10 | 1 to 10 | > 10 | – | – | – | 1 to 10 | 1 to 10 | 1 to 10
27 | COc1nc(-c2ccc(OC3CC(C)(C)NC(C)(C)C3)nn2)ccc1-n1cccn1 [Compound 934] | – | – | – | – | – | – | – | 1 to 10 | > 10 | 1 to 10 | > 10 | – | – | – | 1 to 10 | 1 to 10 | 1 to 10
28 | COc1nc(-c2ccc(N(C)C3CC(C)(C)NC(C)(C)C3)nn2)ccc1-n1cccn1 [Compound 935] | – | – | – | – | – | – | – | 0.1 to 1 | 0.1 to 1 | 0.1 to 1 | 0.1 to 1 | – | – | – | 0.1 to 1 | 0.1 to 1 | 0.1 to 1
